Measurements as given in PubChem BioAssay (NCI).
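Compound exposure: 48 hours, 5 concentrations, 96-well plates. TGI: total growth inhibition.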

Tests used:
Experiment in all cases: growth of human tumour cells (NCI), 48 h
[1] = system: SK-MEL-5 melanoma
[2] = system: SW-620 colon
[3] = system: ACHN renal
[4] = system: UO-31 renal
[5] = system: RPMI-8226 leukemia
[6] = system: CCRF-CEM leukemia
[7] = system: SF-539 CNS
[8] = system: SF-268 CNS
[9] = system: HCT-116 colon
[10] = system: IGROV1 ovarian
[11] = system: OVCAR-5 ovarian
[12] = system: K-562 leukemia
[13] = system: MDA-MB-435
[14] = system: COLO 205 colon
[15] = system: HOP-92 NSCLC
[16] = system: NCI-H522 lung
[17] = system: HT29 colon
[18] = system: EKVX NSCLC
[19] = system: OVCAR-4 ovarian
[20] = system: UACC-62 melanoma
[21] = system: HS 578T breast
[22] = system: A549 NSCLC
[23] = system: HOP-62 NSCLC
[24] = system: SN12C renal
[25] = system: OVCAR-8 ovarian
[26] = system: SF-295 CNS
[27] = system: SK-OV-3 ovarian
[28] = system: DU-145 prostate
[29] = system: OVCAR-3 ovarian
[30] = system: SR leukemia
[31] = system: MOLT-4 leukemia
[32] = system: SNB-75 CNS
[33] = system: HL-60(TB) leukemia
[34] = system: PC-3 prostate
[35] = system: NCI-H226 lung
[36] = system: MDA-N
[37] = system: U251 CNS
[38] = system: HCT-15 colon
[39] = system: NCI-H23 lung
[40] = system: KM12 colon
[41] = system: MALME-3M melanoma
[42] = system: SNB-19 CNS
[43] = system: CAKI-1 renal
[44] = system: T-47D breast
[45] = system: MDA-MB-231 breast
[46] = system: BT-549 breast
[47] = system: 786-0 renal
[48] = system: RXF 393 renal
[49] = system: UACC-257 melanoma
[50] = system: MCF7 breast
[51] = system: LOX IMVI melanoma
[52] = system: TK-10 renal
[53] = system: NCI/ADR-RES ovarian
[54] = system: SK-MEL-2 melanoma
[55] = system: NCI-H460 lung
[56] = system: HCC-2998 colon
[57] = system: M14 melanoma
[58] = system: SK-MEL-28 melanoma

COc1ccc(NC(=O)CC(=O)NN)cc1
TGI [1]: > 100 µM
TGI [2]: > 100 µM
TGI [3]: > 100 µM
TGI [4]: > 100 µM
TGI [5]: > 100 µM
TGI [6]: > 100 µM
TGI [7]: > 100 µM
TGI [8]: > 100 µM
TGI [9]: > 100 µM
TGI [10]: > 100 µM
TGI [11]: > 100 µM
TGI [12]: > 100 µM
TGI [13]: > 100 µM
TGI [14]: > 100 µM
TGI [15]: > 100 µM
TGI [16]: > 100 µM
TGI [17]: > 100 µM
TGI [18]: > 100 µM
TGI [19]: > 100 µM
TGI [20]: > 100 µM
TGI [21]: > 100 µM
TGI [22]: > 100 µM
TGI [23]: > 100 µM
TGI [24]: > 100 µM
TGI [25]: > 100 µM
TGI [26]: > 100 µM
TGI [27]: > 100 µM
TGI [28]: > 100 µM
TGI [29]: > 100 µM
TGI [30]: > 100 µM
TGI [31]: > 100 µM
TGI [32]: > 100 µM
TGI [33]: > 100 µM
TGI [34]: > 100 µM
TGI [35]: > 100 µM
TGI [36]: > 100 µM
TGI [37]: > 100 µM
TGI [38]: > 100 µM
TGI [39]: > 100 µM
TGI [40]: > 100 µM
TGI [41]: > 100 µM
TGI [42]: > 100 µM
TGI [43]: > 100 µM
TGI [44]: > 100 µM
TGI [45]: > 100 µM
TGI [46]: > 100 µM
TGI [47]: > 100 µM
TGI [48]: > 100 µM
TGI [49]: > 100 µM
TGI [50]: > 100 µM
TGI [51]: > 100 µM
TGI [52]: > 100 µM
TGI [53]: > 100 µM
TGI [54]: > 100 µM
TGI [55]: > 100 µM

CN(C)c1ccc(/C=C(\C#N)c2nc(-c3cc4ccccc4oc3=O)cs2)cc1
TGI [1]: > 50 µM
TGI [2]: > 50 µM
TGI [3]: > 50 µM
TGI [4]: > 50 µM
TGI [5]: > 50 µM
TGI [6]: > 50 µM
TGI [7]: 26.7 µM
TGI [8]: > 50 µM
TGI [9]: > 50 µM
TGI [10]: > 50 µM
TGI [11]: > 50 µM
TGI [12]: > 50 µM
TGI [56]: > 50 µM
TGI [13]: > 50 µM
TGI [14]: > 50 µM
TGI [15]: 16.8 µM
TGI [16]: 31.6 µM
TGI [17]: > 50 µM
TGI [18]: > 50 µM
TGI [19]: > 50 µM
TGI [20]: 24.3 µM
TGI [21]: > 50 µM
TGI [22]: > 50 µM
TGI [23]: 15.6 µM
TGI [24]: > 50 µM
TGI [25]: > 50 µM
TGI [26]: 25.1 µM
TGI [27]: > 50 µM
TGI [28]: > 50 µM
TGI [30]: > 50 µM
TGI [31]: > 50 µM
TGI [32]: 4.21 µM
TGI [33]: > 50 µM
TGI [34]: > 50 µM
TGI [57]: > 50 µM
TGI [35]: > 50 µM
TGI [36]: > 50 µM
TGI [37]: 44.5 µM
TGI [38]: > 50 µM
TGI [58]: > 50 µM
TGI [40]: > 50 µM
TGI [41]: > 50 µM
TGI [42]: > 50 µM
TGI [43]: > 50 µM
TGI [44]: > 50 µM
TGI [45]: 40.9 µM
TGI [46]: 8.16 µM
TGI [47]: 21 µM
TGI [48]: > 50 µM
TGI [49]: > 50 µM
TGI [50]: > 50 µM
TGI [51]: > 50 µM
TGI [52]: 21.8 µM
TGI [53]: > 50 µM
TGI [54]: 38.6 µM
TGI [55]: > 50 µM
